Source: ChEMBL document CHEMBL3885861, “Open TG-GATES”

Organism: Rattus norvegicus
Assay: Open TG-GATES - Regimen: Daily Repeat
Format: toxicity, organism-based, Sprague-Dawley
Parameters: regimen Daily Repeat, gender Male, age 6 weeks
Settings: in vivo, po, route gavage; for APTT / Bas / Eos / Fbg / Hb / Ht / Lym / MCH / MCHC / MCV / Mono / Neu / PT / Plat / RBC / Ret / WBC: tissue Blood; for LIVER: tissue Liver; for A/G / ALP / ALT / AST / BUN / CRE / Ca / Cl / DBIL / GLC / IP / K / LDH / Na / PL / RALB / TBIL / TC / TG / TP / gamma-GTP: tissue Plasma
[1] = 0 mg/kg, 72 h, dose level Control, time 3 day
[2] = 0 mg/kg, […], dose level Control, time 7 day
[3] = 0 mg/kg, […], dose level Control, time 14 day
[4] = 0 mg/kg, […], dose level Control, time 28 day
[5] = 6 mg/kg, 72 h, dose level Low, time 3 day
[6] = 6 mg/kg, […], dose level Low, time 7 day
[7] = 6 mg/kg, […], dose level Low, time 14 day
[8] = 6 mg/kg, […], dose level Low, time 28 day

## O=[N+]([O-])c1ccc(O)c([N+](=O)[O-])c1 [2,4-DINITROPHENOL]
[1]
  TERMINAL_BW: 246.4 g
  APTT: 16.7 s
  Bas: 0%
  Eos: 1.2%
  Fbg: 265 mg/dL
  Hb: 12.8 g/dL
  Ht: 38.3%
  Lym: 74.4%
  MCH: 21.4 pg
  MCHC: 33.5%
  MCV: 64 fL
  Mono: 4.8%
  Neu: 19.8%
  PT: 11.6 s
  Plat: 131.4 x10_4/uL
  RBC: 599.4 x10_4/ul
  Ret: 6%
  WBC: 119.4 x10_2/uL
  LIVER: 11.9 g
  A/G: 2.3
  ALP: 1481 IU/L
  ALT: 33.8 IU/L
  AST: 62.6 IU/L
  BUN: 15.6 mg/dL
  CRE: 0.4 mg/dL
  Ca: 11.6 mg/dL
  Cl: 103.2 meq/L
  DBIL: 0.01 mg/dL
  GLC: 183 mg/dL
  IP: 7.4 mg/dL
  K: 4.7 meq/L
  LDH: 91.6 IU/L
  Na: 138.2 meq/L
  PL: 156.2 mg/dL
  RALB: 3.9 g/dL
  TBIL: 0.034 mg/dL
  TC: 84.2 mg/dL
  TG: 137 mg/dL
  TP: 5.6 g/dL
  gamma-GTP: 0.8 IU/L
[2]
  TERMINAL_BW: 271.5 g
  APTT: 16 s
  Bas: 0%
  Eos: 1%
  Fbg: 247 mg/dL
  Hb: 13.5 g/dL
  Ht: 39.8%
  Lym: 77.2%
  MCH: 21.5 pg
  MCHC: 33.9%
  MCV: 63.4 fL
  Mono: 5%
  Neu: 16.8%
  PT: 11.6 s
  Plat: 133.8 x10_4/uL
  RBC: 629 x10_4/ul
  Ret: 5%
  WBC: 101.8 x10_2/uL
  LIVER: 13.1 g
  A/G: 2.2
  ALP: 1556.6 IU/L
  ALT: 38.6 IU/L
  AST: 68.8 IU/L
  BUN: 18.2 mg/dL
  CRE: 0.4 mg/dL
  Ca: 11.4 mg/dL
  Cl: 105.8 meq/L
  DBIL: 0.014 mg/dL
  GLC: 182.2 mg/dL
  IP: 7.7 mg/dL
  K: 4.7 meq/L
  LDH: 107 IU/L
  Na: 141.2 meq/L
  PL: 154.8 mg/dL
  RALB: 3.8 g/dL
  TBIL: 0.028 mg/dL
  TC: 80 mg/dL
  TG: 162.4 mg/dL
  TP: 5.5 g/dL
  gamma-GTP: 0.8 IU/L
[3]
  TERMINAL_BW: 341.5 g
  APTT: 16.5 s
  Bas: 0%
  Eos: 1%
  Fbg: 243.2 mg/dL
  Hb: 13.8 g/dL
  Ht: 40.7%
  Lym: 73%
  MCH: 20.9 pg
  MCHC: 33.9%
  MCV: 61.7 fL
  Mono: 5%
  Neu: 21%
  PT: 11.6 s
  Plat: 130 x10_4/uL
  RBC: 660.8 x10_4/ul
  Ret: 3.9%
  WBC: 124.2 x10_2/uL
  LIVER: 16.5 g
  A/G: 2
  ALP: 1126.4 IU/L
  ALT: 33.4 IU/L
  AST: 59.6 IU/L
  BUN: 18.4 mg/dL
  CRE: 0.3 mg/dL
  Ca: 11.4 mg/dL
  Cl: 104.2 meq/L
  DBIL: 0.012 mg/dL
  GLC: 186 mg/dL
  IP: 7.4 mg/dL
  K: 4.6 meq/L
  LDH: 101.6 IU/L
  Na: 136.8 meq/L
  PL: 151.4 mg/dL
  RALB: 4 g/dL
  TBIL: 0.024 mg/dL
  TC: 72.8 mg/dL
  TG: 182 mg/dL
  TP: 6 g/dL
  gamma-GTP: 0 IU/L
[4]
  TERMINAL_BW: 452.7 g
  APTT: 15.9 s
  Bas: 0%
  Eos: 1%
  Fbg: 278.4 mg/dL
  Hb: 14.8 g/dL
  Ht: 43.5%
  Lym: 78.4%
  MCH: 19.6 pg
  MCHC: 34%
  MCV: 57.7 fL
  Mono: 5.6%
  Neu: 15.4%
  PT: 11.6 s
  Plat: 117.2 x10_4/uL
  RBC: 754.6 x10_4/ul
  Ret: 2.8%
  WBC: 107.4 x10_2/uL
  LIVER: 19.9 g
  A/G: 1.8
  ALP: 930.8 IU/L
  ALT: 30.8 IU/L
  AST: 58.6 IU/L
  BUN: 20.2 mg/dL
  CRE: 0.5 mg/dL
  Ca: 11.2 mg/dL
  Cl: 103.4 meq/L
  DBIL: 0.016 mg/dL
  GLC: 195.4 mg/dL
  IP: 7.2 mg/dL
  K: 4.4 meq/L
  LDH: 108.8 IU/L
  Na: 140.6 meq/L
  PL: 161.6 mg/dL
  RALB: 4 g/dL
  TBIL: 0.036 mg/dL
  TC: 79.8 mg/dL
  TG: 228.8 mg/dL
  TP: 6.2 g/dL
  gamma-GTP: 0.4 IU/L
[5]
  TERMINAL_BW: 247 g
  APTT: 16.5 s
  Bas: 0%
  Eos: 1%
  Fbg: 280.8 mg/dL
  Hb: 13.5 g/dL
  Ht: 39.7%
  Lym: 70%
  MCH: 21.5 pg
  MCHC: 34%
  MCV: 63.2 fL
  Mono: 9.4%
  Neu: 19.4%
  PT: 11.4 s
  Plat: 143.8 x10_4/uL
  RBC: 628 x10_4/ul
  Ret: 6.1%
  WBC: 100 x10_2/uL
  LIVER: 12.5 g
  A/G: 2.3
  ALP: 1318.2 IU/L
  ALT: 36 IU/L
  AST: 61.6 IU/L
  BUN: 18.8 mg/dL
  CRE: 0.4 mg/dL
  Ca: 11.6 mg/dL
  Cl: 104.4 meq/L
  DBIL: 0.012 mg/dL
  GLC: 190 mg/dL
  IP: 7.9 mg/dL
  K: 4.9 meq/L
  LDH: 110.2 IU/L
  Na: 137.6 meq/L
  PL: 165.2 mg/dL
  RALB: 4 g/dL
  TBIL: 0.032 mg/dL
  TC: 89.2 mg/dL
  TG: 137.2 mg/dL
  TP: 5.7 g/dL
  gamma-GTP: 0.6 IU/L
[6]
  TERMINAL_BW: 282.7 g
  APTT: 16.4 s
  Bas: 0%
  Eos: 0.8%
  Fbg: 264.6 mg/dL
  Hb: 13.1 g/dL
  Ht: 38.6%
  Lym: 81.6%
  MCH: 21.3 pg
  MCHC: 33.9%
  MCV: 62.6 fL
  Mono: 4.2%
  Neu: 13.6%
  PT: 11.5 s
  Plat: 137.2 x10_4/uL
  RBC: 617.8 x10_4/ul
  Ret: 5.3%
  WBC: 117 x10_2/uL
  LIVER: 13.1 g
  A/G: 2.3
  ALP: 1599.8 IU/L
  ALT: 36.8 IU/L
  AST: 66 IU/L
  BUN: 17.6 mg/dL
  CRE: 0.3 mg/dL
  Ca: 11.4 mg/dL
  Cl: 104.8 meq/L
  DBIL: 0.012 mg/dL
  GLC: 188.2 mg/dL
  IP: 7.4 mg/dL
  K: 4.5 meq/L
  LDH: 115.4 IU/L
  Na: 140.8 meq/L
  PL: 138.6 mg/dL
  RALB: 3.9 g/dL
  TBIL: 0.03 mg/dL
  TC: 74.2 mg/dL
  TG: 121.8 mg/dL
  TP: 5.6 g/dL
  gamma-GTP: 1 IU/L
[7]
  TERMINAL_BW: 318.6 g
  APTT: 17.1 s
  Bas: 0%
  Eos: 1%
  Fbg: 255.8 mg/dL
  Hb: 14.1 g/dL
  Ht: 41.5%
  Lym: 76.4%
  MCH: 20.9 pg
  MCHC: 33.9%
  MCV: 61.7 fL
  Mono: 6.4%
  Neu: 16.4%
  PT: 11.8 s
  Plat: 119.2 x10_4/uL
  RBC: 671.8 x10_4/ul
  Ret: 3.9%
  WBC: 134.2 x10_2/uL
  LIVER: 13.9 g
  A/G: 2.1
  ALP: 1262 IU/L
  ALT: 34.8 IU/L
  AST: 66.2 IU/L
  BUN: 18.8 mg/dL
  CRE: 0.4 mg/dL
  Ca: 11.1 mg/dL
  Cl: 106.2 meq/L
  DBIL: 0.01 mg/dL
  GLC: 184.6 mg/dL
  IP: 6.8 mg/dL
  K: 4.7 meq/L
  LDH: 114.6 IU/L
  Na: 136.8 meq/L
  PL: 129.4 mg/dL
  RALB: 3.8 g/dL
  TBIL: 0.016 mg/dL
  TC: 62.4 mg/dL
  TG: 125.8 mg/dL
  TP: 5.7 g/dL
  gamma-GTP: 0 IU/L
[8]
  TERMINAL_BW: 445.6 g
  APTT: 16.5 s
  Bas: 0%
  Eos: 1.2%
  Fbg: 282.4 mg/dL
  Hb: 14.9 g/dL
  Ht: 43.9%
  Lym: 76.6%
  MCH: 19.6 pg
  MCHC: 33.9%
  MCV: 57.8 fL
  Mono: 5.6%
  Neu: 16.8%
  PT: 11.8 s
  Plat: 121.2 x10_4/uL
  RBC: 759.4 x10_4/ul
  Ret: 2.2%
  WBC: 117.4 x10_2/uL
  LIVER: 20 g
  A/G: 1.9
  ALP: 1091.6 IU/L
  ALT: 33 IU/L
  AST: 63.6 IU/L
  BUN: 20.2 mg/dL
  CRE: 0.5 mg/dL
  Ca: 11 mg/dL
  Cl: 105.2 meq/L
  DBIL: 0.01 mg/dL
  GLC: 203 mg/dL
  IP: 7.3 mg/dL
  K: 4.3 meq/L
  LDH: 144.4 IU/L
  Na: 140.6 meq/L
  PL: 150 mg/dL
  RALB: 3.9 g/dL
  TBIL: 0.03 mg/dL
  TC: 72.6 mg/dL
  TG: 199.8 mg/dL
  TP: 6 g/dL
  gamma-GTP: 0.8 IU/L
